Legend:
[1] = tested on: normal primary NK cells, pool 1 (3 donors) (IL-2 2.5 ng/mL); experiment: drug sensitivity score (DSS) (DSS units); higher = more sensitive; extreme values may be limits of the assay; details: 72 h
[2] = tested on: KAI3 (IL-2 2.5 ng/mL); experiment: as above; details: 72 h
[3] = tested on: IMC-1 (IL-2 20 ng/mL); experiment: as above; details: 72 h
[4] = tested on: SNK-6 (IL-2 2.5 ng/mL); experiment: as above; details: 72 h
[5] = tested on: normal primary NK cells, pool 1 (3 donors), resting (IL-2 0 ng/mL); experiment: as above; details: 72 h
[6] = tested on: NK-YS (IL-2 2.5 ng/mL); experiment: as above; details: 72 h
[7] = tested on: NKL (IL-2 2.5 ng/mL); experiment: as above; details: 72 h
[8] = tested on: normal primary NK cells, pool 3 (3 donors) (IL-2 2.5 ng/mL); experiment: as above; details: 72 h
[9] = tested on: YT (IL-2 2.5 ng/mL); experiment: as above; details: 72 h
[10] = tested on: DERL-7 (IL-2 2.5 ng/mL); experiment: as above; details: 72 h
[11] = tested on: KHYG-1 (IL-2 2.5 ng/mL); experiment: as above; details: 72 h
[12] = tested on: NK-92 (IL-2 2.5 ng/mL); experiment: as above; details: 72 h
[13] = tested on: normal primary NK cells, pool 2 (3 donors) (IL-2 2.5 ng/mL); experiment: as above; details: 72 h
[14] = tested on: normal NK cells expanded with K562-aAPC; experiment: percent inhibition of viability; higher = more inhibition; details: 72 h, IL-2 2.5 ng/mL
Method: (§1)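 Drug sensitivity and resistance testing on K562-aAPC-expanded normal NK cells: 5 concentrations (10-fold steps over a 10,000-fold range), 72 h at 37 °C, viability by CellTiter-Glo normalised to DMSO and benzethonium chloride controls; DSS from the fitted curve.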

[15] = tested on: normal NK cells expanded with K562-aAPC; experiment: drug sensitivity score (DSS) (DSS units); higher = more sensitive; extreme values may be limits of the assay; details: 72 h; IL-2 2.5 ng/mL
Method: as §1

[16] = tested on: normal primary NK cells, pool 1 (3 donors) (IL-2 2.5 ng/mL); experiment: percent inhibition of viability; higher = more inhibition; details: 72 h
[17] = tested on: KAI3 (IL-2 2.5 ng/mL); experiment: as above; details: 72 h
[18] = tested on: IMC-1 (IL-2 20 ng/mL); experiment: as above; details: 72 h
[19] = tested on: SNK-6 (IL-2 2.5 ng/mL); experiment: as above; details: 72 h
[20] = tested on: normal primary NK cells, pool 1 (3 donors), resting (IL-2 0 ng/mL); experiment: as above; details: 72 h
[21] = tested on: NK-YS (IL-2 2.5 ng/mL); experiment: as above; details: 72 h
[22] = tested on: NKL (IL-2 2.5 ng/mL); experiment: as above; details: 72 h
[23] = tested on: normal primary NK cells, pool 3 (3 donors) (IL-2 2.5 ng/mL); experiment: as above; details: 72 h
[24] = tested on: YT (IL-2 2.5 ng/mL); experiment: as above; details: 72 h
[25] = tested on: DERL-7 (IL-2 2.5 ng/mL); experiment: as above; details: 72 h
[26] = tested on: KHYG-1 (IL-2 2.5 ng/mL); experiment: as above; details: 72 h
[27] = tested on: NK-92 (IL-2 2.5 ng/mL); experiment: as above; details: 72 h
[28] = tested on: normal primary NK cells, pool 2 (3 donors) (IL-2 2.5 ng/mL); experiment: as above; details: 72 h

## NC(=O)c1ccc(I)c([N+](=O)[O-])c1 [Iniparib] (max concentration tested 10000 nM)
[1]
  drug sensitivity score: 4.84
[2]
  drug sensitivity score: 0
[3]
  drug sensitivity score: 0
[4]
  drug sensitivity score: 2.01
[5]
  drug sensitivity score: 7.97
[6]
  drug sensitivity score: 0
[7]
  drug sensitivity score: 0
[8]
  drug sensitivity score: 0.46
[9]
  drug sensitivity score: 0
[10]
  drug sensitivity score: 1.1
[11]
  drug sensitivity score: 0
[12]
  drug sensitivity score: 0
[13]
  drug sensitivity score: 1.31
[14]; 1 nM
  percent inhibition of viability: 7.03%
[14]; 10 nM
  percent inhibition of viability: 0.05%
[14]; 100 nM
  percent inhibition of viability: 0.33%
[14]; 1000 nM
  percent inhibition of viability: 1.63%
[14]; 10000 nM
  percent inhibition of viability: 13.4%
[15]
  drug sensitivity score: 0.24
[16]; 1 nM
  percent inhibition of viability: 8.54%
[16]; 10 nM
  percent inhibition of viability: 2.74%
[16]; 100 nM
  percent inhibition of viability: 4.22%
[16]; 1000 nM
  percent inhibition of viability: 12.3%
[16]; 10000 nM
  percent inhibition of viability: 53.8%
[17]; 1 nM
  percent inhibition of viability: 11.4%
[17]; 10 nM
  percent inhibition of viability: 8.8%
[17]; 100 nM
  percent inhibition of viability: 12.9%
[17]; 1000 nM
  percent inhibition of viability: 11.2%
[17]; 10000 nM
  percent inhibition of viability: 19%
[18]; 1 nM
  percent inhibition of viability: 2.82%
[18]; 10 nM
  percent inhibition of viability: 5.28%
[18]; 100 nM
  percent inhibition of viability: 4.37%
[18]; 1000 nM
  percent inhibition of viability: 4.53%
[18]; 10000 nM
  percent inhibition of viability: -3.7%
[19]; 1 nM
  percent inhibition of viability: 2.09%
[19]; 10 nM
  percent inhibition of viability: 3.24%
[19]; 100 nM
  percent inhibition of viability: 11.9%
[19]; 1000 nM
  percent inhibition of viability: 10.5%
[19]; 10000 nM
  percent inhibition of viability: 23.6%
[20]; 1 nM
  percent inhibition of viability: -2.43%
[20]; 10 nM
  percent inhibition of viability: -4.44%
[20]; 100 nM
  percent inhibition of viability: -6.4%
[20]; 1000 nM
  percent inhibition of viability: 24.9%
[20]; 10000 nM
  percent inhibition of viability: 78.9%
[21]; 1 nM
  percent inhibition of viability: -0.99%
[21]; 10 nM
  percent inhibition of viability: 0.64%
[21]; 100 nM
  percent inhibition of viability: -4.34%
[21]; 1000 nM
  percent inhibition of viability: -1.33%
[21]; 10000 nM
  percent inhibition of viability: -4.16%
[22]; 1 nM
  percent inhibition of viability: -0.1%
[22]; 10 nM
  percent inhibition of viability: 1.47%
[22]; 100 nM
  percent inhibition of viability: 0.26%
[22]; 1000 nM
  percent inhibition of viability: -4.81%
[22]; 10000 nM
  percent inhibition of viability: -5.47%
[23]; 1 nM
  percent inhibition of viability: -1.14%
[23]; 10 nM
  percent inhibition of viability: -4.93%
[23]; 100 nM
  percent inhibition of viability: 1.99%
[23]; 1000 nM
  percent inhibition of viability: -1.49%
[23]; 10000 nM
  percent inhibition of viability: 19.3%
[24]; 1 nM
  percent inhibition of viability: 7.63%
[24]; 10 nM
  percent inhibition of viability: 6.75%
[24]; 100 nM
  percent inhibition of viability: 4.79%
[24]; 1000 nM
  percent inhibition of viability: 6.7%
[24]; 10000 nM
  percent inhibition of viability: 5.3%
[25]; 1 nM
  percent inhibition of viability: -3.85%
[25]; 10 nM
  percent inhibition of viability: -2.44%
[25]; 100 nM
  percent inhibition of viability: 3.9%
[25]; 1000 nM
  percent inhibition of viability: -0.89%
[25]; 10000 nM
  percent inhibition of viability: 28.1%
[26]; 1 nM
  percent inhibition of viability: -2.79%
[26]; 10 nM
  percent inhibition of viability: -0.73%
[26]; 100 nM
  percent inhibition of viability: -1.94%
[26]; 1000 nM
  percent inhibition of viability: 0.34%
[26]; 10000 nM
  percent inhibition of viability: 2.04%
[27]; 1 nM
  percent inhibition of viability: 8.25%
[27]; 10 nM
  percent inhibition of viability: 4.1%
[27]; 100 nM
  percent inhibition of viability: 12.8%
[27]; 1000 nM
  percent inhibition of viability: 3.36%
[27]; 10000 nM
  percent inhibition of viability: 7.28%
[28]; 1 nM
  percent inhibition of viability: -8.36%
[28]; 10 nM
  percent inhibition of viability: -7.08%
[28]; 100 nM
  percent inhibition of viability: 1.43%
[28]; 1000 nM
  percent inhibition of viability: -0.1%
[28]; 10000 nM
  percent inhibition of viability: 30.1%

## CCOc1cc2ncc(C#N)c(Nc3ccc(OCc4ccccn4)c(Cl)c3)c2cc1NC(=O)/C=C/CN(C)C [Neratinib] (max concentration tested 1000 nM)
[1]
  drug sensitivity score: 1.29
[2]
  drug sensitivity score: 2.59
[3]
  drug sensitivity score: 0
[4]
  drug sensitivity score: 0
[5]
  drug sensitivity score: 3.36
[6]
  drug sensitivity score: 0.13
[7]
  drug sensitivity score: 3.24
[8]
  drug sensitivity score: 0.26
[9]
  drug sensitivity score: 0
[10]
  drug sensitivity score: 5.21
[11]
  drug sensitivity score: 1.72
[12]
  drug sensitivity score: 4.28
[13]
  drug sensitivity score: 1.38
[14]; 0.1 nM
  percent inhibition of viability: -2.53%
[14]; 1 nM
  percent inhibition of viability: 0.83%
[14]; 10 nM
  percent inhibition of viability: -1.65%
[14]; 100 nM
  percent inhibition of viability: 8.19%
[14]; 1000 nM
  percent inhibition of viability: 50%
[15]
  drug sensitivity score: 4.02
[16]; 0.1 nM
  percent inhibition of viability: -6.45%
[16]; 1 nM
  percent inhibition of viability: -7.28%
[16]; 10 nM
  percent inhibition of viability: -6.63%
[16]; 100 nM
  percent inhibition of viability: -9.14%
[16]; 1000 nM
  percent inhibition of viability: 36.2%
[17]; 0.1 nM
  percent inhibition of viability: -4.25%
[17]; 1 nM
  percent inhibition of viability: -5.47%
[17]; 10 nM
  percent inhibition of viability: -6.36%
[17]; 100 nM
  percent inhibition of viability: 0.65%
[17]; 1000 nM
  percent inhibition of viability: 48.1%
[18]; 0.1 nM
  percent inhibition of viability: -2.69%
[18]; 1 nM
  percent inhibition of viability: -1.05%
[18]; 10 nM
  percent inhibition of viability: 1.8%
[18]; 100 nM
  percent inhibition of viability: 4.28%
[18]; 1000 nM
  percent inhibition of viability: 1.07%
[19]; 0.1 nM
  percent inhibition of viability: 11%
[19]; 1 nM
  percent inhibition of viability: 16.1%
[19]; 10 nM
  percent inhibition of viability: 38.2%
[19]; 100 nM
  percent inhibition of viability: 6.35%
[19]; 1000 nM
  percent inhibition of viability: 35.7%
[20]; 0.1 nM
  percent inhibition of viability: -2.47%
[20]; 1 nM
  percent inhibition of viability: -22.5%
[20]; 10 nM
  percent inhibition of viability: -7.51%
[20]; 100 nM
  percent inhibition of viability: -6.96%
[20]; 1000 nM
  percent inhibition of viability: 70.1%
[21]; 0.1 nM
  percent inhibition of viability: -2.05%
[21]; 1 nM
  percent inhibition of viability: -4.96%
[21]; 10 nM
  percent inhibition of viability: -1.85%
[21]; 100 nM
  percent inhibition of viability: -5.03%
[21]; 1000 nM
  percent inhibition of viability: 15.2%
[22]; 0.1 nM
  percent inhibition of viability: -1.48%
[22]; 1 nM
  percent inhibition of viability: 12.9%
[22]; 10 nM
  percent inhibition of viability: 8.45%
[22]; 100 nM
  percent inhibition of viability: 12.5%
[22]; 1000 nM
  percent inhibition of viability: 40.4%
[23]; 0.1 nM
  percent inhibition of viability: -13.9%
[23]; 1 nM
  percent inhibition of viability: -5.37%
[23]; 10 nM
  percent inhibition of viability: -1.66%
[23]; 100 nM
  percent inhibition of viability: -10.9%
[23]; 1000 nM
  percent inhibition of viability: 18.9%
[24]; 0.1 nM
  percent inhibition of viability: 1.33%
[24]; 1 nM
  percent inhibition of viability: 4.12%
[24]; 10 nM
  percent inhibition of viability: 5.46%
[24]; 100 nM
  percent inhibition of viability: 1.01%
[24]; 1000 nM
  percent inhibition of viability: 10.2%
[25]; 0.1 nM
  percent inhibition of viability: -7.68%
[25]; 1 nM
  percent inhibition of viability: 3.12%
[25]; 10 nM
  percent inhibition of viability: 6.29%
[25]; 100 nM
  percent inhibition of viability: 8.45%
[25]; 1000 nM
  percent inhibition of viability: 68.9%
[26]; 0.1 nM
  percent inhibition of viability: 4.6%
[26]; 1 nM
  percent inhibition of viability: -0.87%
[26]; 10 nM
  percent inhibition of viability: 25.1%
[26]; 100 nM
  percent inhibition of viability: 2.37%
[26]; 1000 nM
  percent inhibition of viability: 22%
[27]; 0.1 nM
  percent inhibition of viability: 3.19%
[27]; 1 nM
  percent inhibition of viability: -13.2%
[27]; 10 nM
  percent inhibition of viability: 7.23%
[27]; 100 nM
  percent inhibition of viability: 7.67%
[27]; 1000 nM
  percent inhibition of viability: 55.4%
[28]; 0.1 nM
  percent inhibition of viability: -8.13%
[28]; 1 nM
  percent inhibition of viability: -2.28%
[28]; 10 nM
  percent inhibition of viability: 2.22%
[28]; 100 nM
  percent inhibition of viability: -1.98%
[28]; 1000 nM
  percent inhibition of viability: 33.3%

From the supplement of paper PMC5908809
